These results are taken from BindingDB's records for doi:10.1021/jm021079g (Academy of Sciences of The Czech Republic, 2003).

The assay deals with T1, Dimer of Gag-Pol polyprotein [501-599] (Human immunodeficiency virus 1, UniProt P03367).
T1 construct: 501-599
The experiment in a line: Protease Inhibition Assay. The note with it: pH 4.7. The protocol:
Inhibition constants were determined by a spectrophotometric assay with the chromogenic peptide substrate.

A word on the Ki: it is a dissociation constant, usually derived from enzyme kinetics or from competition with a known ligand. `CC(C)(C)OC(=O)N[C@@H](Cc1ccccc1)[C@@H](O)CN[C@@H](Cc1ccccc1)C(=O)N[C@@H](CCC(N)=O)C(=O)N[C@@H](Cc1ccccc1)C(N)=O` came in with an inhibition constant (Ki) of 33 nM.
As for `CC(C)(C)OC(=O)N[C@@H](Cc1ccccc1)[C@@H](O)CN[C@@H](Cc1ccccc1)C(=O)N[C@@H](CCC(=O)O)C(=O)N[C@@H](Cc1ccccc1)C(N)=O`, the figure is 0.15 nM.
